# Laboratory results taken from patent US20140206028A1, “Stable Electrically Active Neurons from Adult Tissue” (University of Central Florida Research Foundation, Inc., priority 2011, published 2014).
# Test system: adult rat hippocampal neurons
# Experiment: Whole-cell patch-clamp electrophysiology of cultured adult hippocampal neurons (electrical recovery)
# Format: cell-based
# Settings: cycloheximide during incubation of confluent neurons with 25 μM glutamate
# Experimental: Whole-cell, patch-clamp recordings were performed at room temperature. pH was adjusted to 7.3 with HEPES acid and base, ion concentrations with NaCl to approximately 130 mM, and osmolarity of 290-300 mOsm. Cells were visualized on the stage with a Zeiss Axioscope, 2 FS Plus, upright microscope in maintenance culture medium. Patch pipettes (4-8 M′Ω) were filled with intracellular solution (K-gluconate 140 mM, EGTA 1 mM, MgCl2 2 mM, Na2ATP 5 mM, HEPES 10 mM; pH 7.2), osmolarity approximately 260 mOsm. Voltage clamp and current clamp experiments were performed with a Multiclamp 700A (MDS Analytical Devices) amplifier. Signals were filtered at 3 kHz and digitized at 20 kHz with an Axon Digidata 1322A interface. Data recordings and analysis were performed with pClamp software. Whole-cell capacitance and series resistance were compensated electronically. Only cells with access resistance less than 22 M′Ω were analyzed. Inward currents that had the characteristics of fast sodium currents, and outward currents that had the characteristics of potassium currents were measured in voltage clamp mode using voltage steps of 10 mV from a −70 mV holding potential. Action potentials were measured with 1 s depolarizing current injections to elicit action potentials from a −70 mV holding potential. Cells were morphologically selected for electrophysiological characterization. […]
compound,measurement,value
C[C@@H]1C[C@@H]([C@H](O)CC2CC(=O)NC(=O)C2)C(=O)[C@@H](C)C1 [cycloheximide],glutamate-induced improvements in neuronal electrical activity,completely blocked
